# How the values were obtained:
# [1] = Body mass and body water compartments (bioimpedance) before and after 7-day supplementation; type: in vivo, human; conditions: for Change in extracellular water (ECW) post- vs pre-supplementation / Change in intracellular water (ICW) post- vs pre-supplementation / Change in total body water (TBW) post- vs pre-supplementation: bioimpedance; for Change in extracellular water (ECW) post- vs pre-supplementation / Change in intracellular water (ICW) post- vs pre-supplementation / Change in total body water (TBW) post- vs pre-supplementation / Change in body mass (BM) post- vs pre-supplementation: supplementation week; for Change in body mass (BM) post- vs pre-supplementation: well-trained cyclists, final supplement 5 hours prior
# Experimental: (§1) The experimental design and protocol are complicated and is best understood by reference to FIGS. 1 and 2. The study consisted of two supplementation regimens, each lasting 7 days and encompassing four cycle performance trials consisting of 40 min constant-load exercise at 63% WRmax followed by a 16.1 km (10 mile) time trial. Prior to the first of these experimental trials, familiarisation trials were completed until the variability of two consecutive trials was within 5%. Following this familiarisation period, subjects were matched for body mass (BM) and were randomised in a double blind fashion to either a Cr or a placebo (Pl) group. Subjects performed an exercise trial pre- and post-supplementation in both supplementation weeks. The first test was conducted at least 48 hours after each subject's final familiarisation trial. Each supplementation period started on the day after the first test and finished on the day of the second test.
# (§2) Cr supplementation consisted of 22.8 g·d^−1 of Cr.H2O (equivalent to 10 g Cr×2 daily) and 140 g of glucose polymer (70 g×2 daily) made up in 2 L of warm to hot water for 6 days. […] Each supplementation was made freshly prior to consumption in order to prevent any degradation of Cr to creatinine (Crn). The Pl supplement consisted of 170 g·d^−1 of glucose polymer (85 g×2 daily). During the first and third week of the experimental regimen, subjects in both groups received either 1 g glycerol (Gly) per·kg BM or an equivalent amount of Pl (sucrose solution) diluted in each supplement. In both post-supplementation trials (days 8 and 22) subjects consumed the appropriate supplement 5 hours prior to exercise. […] All supplements had similar taste, texture and appearance and were placed in generic water bottles to ensure double blind administration. On each of the experimental test days (i.e. days 1, 8, 15, 22) subjects ingested 500 ml of water 3 hours prior to exercise and a further 500 ml of water 1 hour prior to exercise to ensure subjects were adequately hydrated prior to all exercise trials (American College of Sports Medicine, 2000).
# (§3) Procedures. Subjects reported to the laboratory on the day of testing following a 3 hr fast and having refrained from alcohol, caffeine and strenuous exercise the day before. Upon arrival at the laboratory, height and nude BM were measured and body water compartments were estimated using a Bodystat Multiscan 5000 Bioimpedance analyser (Bodystat Ltd, Isle of Man) (Van Loan, 1990). This method allows TBW and ECW to be estimated; from these measurements ICW can also be deduced. The bioimpedance measurements were taken while the subjects lay comfortably in a supine position on a non-conductive surface with their arms and legs slightly abducted. Following the bioimpedance measurement, a flexible rectal thermistor was inserted 10 cm beyond the anal sphincter to measure rectal temperature (Tre), an index of core temperature (Tc) and a heart rate (HR) monitor (Polar Sports Tester, Polar Electro Oy, Kempele, Finland) was attached. The subject's right hand and forearm were immersed in water at 42-44° C. for 15 min in order to allow for arterialisation of the venous blood (Forster at al. 1972). Following this, a 21 G cannula was introduced into a superficial vein on the dorsal surface of the heated hand. The subject was transferred to the climatic chamber (ambient temperature 30±1° C. with a relative humidity of 70±2% and air velocity of approximately 1.8 m·sec^−1) and seated on the cycle ergometer for 5 min. During this period thermistors (C8600 10 channel microprocessor, Comark, Hertfordshire, UK) were attached to the subject's chest, tricep, thigh and calf for the determination of weighted mean skin temperature (Tskin) (Ramanthan, 1964). The subject remained seated on the cycle ergometer for a further 1 min while resting HR, Tre, Tskin were recorded and a blood sample (10 ml) obtained. The venous cannula was kept patent by a 10 ml infusion of isotonic saline between samples. […]
# [2] = Cycle exercise in the heat: 40 min constant load at 63% WRmax followed by 16.1 km time trial; type: in vivo, human; conditions: for Core temperature (Tc, rectal) during exercise post- vs pre-supplementation / Heart rate (HR) during exercise post- vs pre-supplementation: 30 C, 70% relative humidity; for RPE for breathlessness post- vs pre-supplementation / RPE for perceived leg fatigue post- vs pre-supplementation: Borg category scale; for Change in plasma volume (delta PV) during exercise post- vs pre-supplementation: calculated from Hb and PCV
# Experimental: as §1, §2, §3
# [3] = Side effects of the supplementation protocol; type: in vivo, human; conditions: 18 subjects
# Excerpt: as §2
# Side effects. […] 3 subjects from each group correctly identified the subject group and 2 subjects correctly identified the Gly supplementation week, while, all other subjects were unsure of the treatment they received.
# [4] = consumed with a substantial fluid intake; by reducing urinary volume; cited from earlier work
# [5] = bioimpedance estimate after supplementation
structure (smiles),measurement,setting,value
"CN(CC(=O)O)C(=N)N [Cr, methyl guanidine acetic acid]",Increase in plasma volume (PV),[1]; assuming 7.5% of the increase in TBW is plasma,approximately 51 ml
same,"Increase in TBW (estimated, on average)",[1]; [5],680 mL
same,Part of TBW increase accounted for by increase in ICW,[1]; [5],500 mL
same,Change in extracellular water (ECW) post- vs pre-supplementation,[1],increased significantly
same,Change in intracellular water (ICW) post- vs pre-supplementation,[1],increased significantly
same,Change in total body water (TBW) post- vs pre-supplementation,[1],increased significantly
same,Change in body mass (BM) post- vs pre-supplementation,[1],increased significantly
same,"Core temperature (Tc, rectal) during exercise post- vs pre-supplementation",[2],significantly lower
same,Heart rate (HR) during exercise post- vs pre-supplementation,[2],significantly lower
same,RPE for breathlessness post- vs pre-supplementation,[2],Lower
same,RPE for perceived leg fatigue post- vs pre-supplementation,[2],Significantly lower
same,Change in plasma volume (delta PV) during exercise post- vs pre-supplementation,[2],lower
same,16.1 km time trial performance,[2]; post- vs pre-supplementation,no effect
"OCC(O)CO [Gly, glycerol]","Increase in TBW (estimated, on average)",[1]; [5],600 mL
same,Part of TBW increase accounted for by increase in ECW,[1]; [5],400 mL
same,Change in extracellular water (ECW) post- vs pre-supplementation,[1],increased significantly
same,Change in intracellular water (ICW) post- vs pre-supplementation,[1],no significant increase
same,Change in total body water (TBW) post- vs pre-supplementation,[1],increased significantly
same,Change in body mass (BM) post- vs pre-supplementation,[1],increased significantly
same,"Core temperature (Tc, rectal) during exercise post- vs pre-supplementation",[2],not significantly different
same,Heart rate (HR) during exercise post- vs pre-supplementation,[2],significantly lower
same,RPE for breathlessness post- vs pre-supplementation,[2],no such effect
same,RPE for perceived leg fatigue post- vs pre-supplementation,[2],no such effect
same,Change in plasma volume (delta PV) during exercise post- vs pre-supplementation,[2],not significantly different
same,Side effects reported,[3],only one report of gastrointestinal distress
same,Fluid expansion or retention above a fluid bolus alone,[4],~600 mL

# Reference: US20070249559A1, “Hydrating Composition” (priority 2004, published 2007)
